Tests used:
[1] = biological target: Tyrosine-protein kinase receptor TYRO3 (Homo sapiens) (UniProt Q06418); test: Inhibition of wild-type human partial length TYRO3 (S497 to T814 residues) expressed in bacterial expression system at 1 uM by Kinomescan method relative to control
[2] = test system: Receptor-type tyrosine-protein kinase FLT3 (Homo sapiens), P36888 [D835Y]; test: Inhibition of human partial length FLT3 D835Y mutant (Q580 to Y969 residues) expressed in bacterial expression system at 1 uM by Kinomescan method relative to control
[3] = test system: Tyrosine-protein kinase ABL1 (Homo sapiens), P00519 [Q252H]; test: Inhibition of human phosphorylated ABL1 Q252H mutant expressed in mammalian expression system at 1 uM by Kinomescan method relative to control
[4] = biological target: Protein-tyrosine kinase 2-beta (Homo sapiens) (UniProt Q14289); test: Inhibition of wild-type human full length PYK2 (M1 to E967 residues) expressed in bacterial expression system at 1 uM by Kinomescan method relative to control
[5] = biological target: BMP-2-inducible protein kinase (Homo sapiens) (UniProt Q9NSY1); test: Inhibition of wild-type human partial length BIKE (S34 to N329 residues) expressed in bacterial expression system at 1 uM by Kinomescan method relative to control
[6] = biological target: Cyclin-dependent kinase 4/cyclin D1 (Homo sapiens) (UniProt P11802+P24385); test: Inhibition of wild-type human full length CDK4/cyclinD1 (M1 to E303 residues) expressed in mammalian expression system at 1 uM by Kinomescan method relative to control
[7] = biological target: Dual specificity protein kinase CLK2 (Homo sapiens) (UniProt P49760); test: Inhibition of wild-type human partial length CLK2 (D144 to R498 residues) expressed in bacterial expression system at 1 uM by Kinomescan method relative to control
[8] = biological target: Serine/threonine-protein kinase 3 (Homo sapiens) (UniProt Q13188); test: Inhibition of wild-type human partial length MST2 (D17 to E318 residues) expressed in bacterial expression system at 1 uM by Kinomescan method relative to control
[9] = biological target: Serine/threonine-protein kinase BRSK2 (Homo sapiens) (UniProt Q8IWQ3); test: Inhibition of wild-type human full length BRSK2 (M1 to L674 residues) expressed in bacterial expression system at 1 uM by Kinomescan method relative to control
Sequence of Serine/threonine-protein kinase BRSK2 (Homo sapiens) (Q8IWQ3 whole entry, the tested form may be a part): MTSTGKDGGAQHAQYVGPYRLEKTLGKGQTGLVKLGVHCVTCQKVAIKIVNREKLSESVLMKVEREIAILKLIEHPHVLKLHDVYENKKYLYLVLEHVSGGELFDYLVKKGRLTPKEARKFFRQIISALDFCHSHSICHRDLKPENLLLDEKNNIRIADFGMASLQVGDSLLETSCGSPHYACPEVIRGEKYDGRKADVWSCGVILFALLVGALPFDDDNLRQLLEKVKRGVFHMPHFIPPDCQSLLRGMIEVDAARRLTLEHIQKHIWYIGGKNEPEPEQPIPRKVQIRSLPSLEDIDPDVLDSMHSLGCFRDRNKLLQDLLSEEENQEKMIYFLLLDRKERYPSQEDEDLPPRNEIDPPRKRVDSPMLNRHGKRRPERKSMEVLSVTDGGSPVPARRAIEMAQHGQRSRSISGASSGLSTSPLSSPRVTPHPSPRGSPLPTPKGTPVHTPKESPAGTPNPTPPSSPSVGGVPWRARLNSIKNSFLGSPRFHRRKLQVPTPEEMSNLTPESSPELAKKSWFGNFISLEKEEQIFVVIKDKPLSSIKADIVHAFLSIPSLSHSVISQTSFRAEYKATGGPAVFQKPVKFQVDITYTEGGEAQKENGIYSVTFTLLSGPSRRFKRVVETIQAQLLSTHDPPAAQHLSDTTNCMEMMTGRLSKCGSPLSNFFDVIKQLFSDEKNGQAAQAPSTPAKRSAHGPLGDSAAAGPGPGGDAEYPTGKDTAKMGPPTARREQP

[10] = biological target: Maternal embryonic leucine zipper kinase (Homo sapiens) (UniProt Q14680); test: Inhibition of wild-type human full length MELK (M1 to V651 residues) expressed in bacterial expression system at 1 uM by Kinomescan method relative to control
Sequence of Maternal embryonic leucine zipper kinase (Homo sapiens) (Q14680 whole entry, looked up, the tested form may be a part): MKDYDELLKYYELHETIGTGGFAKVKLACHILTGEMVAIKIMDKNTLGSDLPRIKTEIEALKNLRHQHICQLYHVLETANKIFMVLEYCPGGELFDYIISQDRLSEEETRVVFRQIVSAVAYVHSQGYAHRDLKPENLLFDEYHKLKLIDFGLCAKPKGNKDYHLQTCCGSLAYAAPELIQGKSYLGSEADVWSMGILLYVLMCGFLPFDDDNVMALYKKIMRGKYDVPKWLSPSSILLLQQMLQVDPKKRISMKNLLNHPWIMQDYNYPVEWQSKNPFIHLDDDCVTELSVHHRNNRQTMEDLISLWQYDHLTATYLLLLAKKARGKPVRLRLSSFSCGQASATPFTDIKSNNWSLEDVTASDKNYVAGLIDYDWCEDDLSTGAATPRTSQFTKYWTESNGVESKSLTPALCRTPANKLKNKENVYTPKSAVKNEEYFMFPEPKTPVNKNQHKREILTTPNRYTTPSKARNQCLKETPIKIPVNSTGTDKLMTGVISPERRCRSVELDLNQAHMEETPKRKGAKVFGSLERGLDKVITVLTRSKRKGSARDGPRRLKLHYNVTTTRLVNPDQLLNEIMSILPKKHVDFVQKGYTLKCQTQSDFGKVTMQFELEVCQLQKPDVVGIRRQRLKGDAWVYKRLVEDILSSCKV

[11] = biological target: Vascular endothelial growth factor receptor 1 (Homo sapiens) (UniProt P17948); test: Inhibition of wild-type human partial length FLT1 (R781 to F1239 residues) expressed in bacterial expression system at 1 uM by Kinomescan method relative to control
[12] = biological target: Ephrin type-A receptor 1 (Homo sapiens) (UniProt P21709); test: Inhibition of wild-type human partial length EPHA1 (V588 to I913 residues) expressed in bacterial expression system at 10 uM by Kinomescan method relative to control
[13] = biological target: Mitogen-activated protein kinase kinase kinase 6 (Homo sapiens) (UniProt O95382); test: Inhibition of wild-type human partial length ASK2 (M278 to R972 residues) expressed in mammalian expression system at 10 uM by Kinomescan method relative to control
[14] = biological target: Calcium/calmodulin-dependent protein kinase type II subunit delta (Homo sapiens) (UniProt Q13557); test: Inhibition of wild-type human partial length CAMK2D (M1 to E329 residues) expressed in bacterial expression system at 10 uM by Kinomescan method relative to control
[15] = biological target: Dual specificity mitogen-activated protein kinase kinase 7 (Homo sapiens) (UniProt O14733); test: Inhibition of wild-type human full length MKK7 (M1 to R419 residues) expressed in mammalian expression system at 10 uM by Kinomescan method relative to control
Sequence of Dual specificity mitogen-activated protein kinase kinase 7 (Homo sapiens) (O14733 whole entry, the tested form may be a part): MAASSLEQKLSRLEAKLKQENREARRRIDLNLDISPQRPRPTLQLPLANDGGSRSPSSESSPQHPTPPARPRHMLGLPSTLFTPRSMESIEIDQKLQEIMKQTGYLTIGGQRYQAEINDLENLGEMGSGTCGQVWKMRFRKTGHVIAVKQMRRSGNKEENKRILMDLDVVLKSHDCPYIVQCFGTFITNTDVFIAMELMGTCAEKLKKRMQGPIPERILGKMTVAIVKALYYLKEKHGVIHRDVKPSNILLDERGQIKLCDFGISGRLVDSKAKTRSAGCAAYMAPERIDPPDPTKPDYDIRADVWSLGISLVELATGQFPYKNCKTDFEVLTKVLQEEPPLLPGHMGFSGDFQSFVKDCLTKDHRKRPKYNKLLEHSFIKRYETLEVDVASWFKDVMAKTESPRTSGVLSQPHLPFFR

[16] = biological target: Serine/threonine-protein kinase 17B (Homo sapiens) (UniProt O94768); test: Inhibition of wild-type human full length DRAK2 (M1 to C372 residues) expressed in bacterial expression system at 10 uM by Kinomescan method relative to control
[17] = biological target: Mitogen-activated protein kinase kinase kinase 15 (Homo sapiens) (UniProt Q6ZN16); test: Inhibition of wild-type human partial length MAP3K15 (T625 to L932 residues) expressed in mammalian expression system at 10 uM by Kinomescan method relative to control
[18] = biological target: Serine/threonine-protein kinase TBK1 (Homo sapiens) (UniProt Q9UHD2); test: Inhibition of wild-type human full length TBK1 (M1 to L729 residues) expressed in mammalian expression system at 10 uM by Kinomescan method relative to control
Sequence of Serine/threonine-protein kinase TBK1 (Homo sapiens) (Q9UHD2 whole entry, the tested form may be a part): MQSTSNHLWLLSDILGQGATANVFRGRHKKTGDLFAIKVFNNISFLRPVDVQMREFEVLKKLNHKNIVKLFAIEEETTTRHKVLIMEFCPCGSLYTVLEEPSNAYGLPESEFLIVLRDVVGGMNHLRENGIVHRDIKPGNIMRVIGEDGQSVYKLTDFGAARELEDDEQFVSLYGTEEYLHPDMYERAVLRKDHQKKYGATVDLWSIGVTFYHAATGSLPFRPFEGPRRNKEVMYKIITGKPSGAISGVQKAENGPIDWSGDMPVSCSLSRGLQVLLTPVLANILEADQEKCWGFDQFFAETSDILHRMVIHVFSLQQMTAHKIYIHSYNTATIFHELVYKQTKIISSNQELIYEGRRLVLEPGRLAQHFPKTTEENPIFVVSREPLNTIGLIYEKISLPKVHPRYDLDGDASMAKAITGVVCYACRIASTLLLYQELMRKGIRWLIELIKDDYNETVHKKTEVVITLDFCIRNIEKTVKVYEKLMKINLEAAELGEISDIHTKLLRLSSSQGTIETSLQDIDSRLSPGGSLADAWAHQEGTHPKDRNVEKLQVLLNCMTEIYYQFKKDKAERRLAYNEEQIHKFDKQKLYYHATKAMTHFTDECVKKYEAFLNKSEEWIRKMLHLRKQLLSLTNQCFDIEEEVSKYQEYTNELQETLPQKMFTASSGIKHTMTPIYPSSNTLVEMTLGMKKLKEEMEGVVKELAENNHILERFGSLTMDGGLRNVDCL

[19] = biological target: Serine/threonine-protein kinase TAO2 (Homo sapiens) (UniProt Q9UL54); test: Inhibition of wild-type human partial length TAOK2 (M1 to A320 residues) expressed in mammalian expression system at 10 uM by Kinomescan method relative to control
[20] = biological target: Serine/threonine-protein kinase 17A (Homo sapiens) (UniProt Q9UEE5); test: Inhibition of wild-type human partial length DRAK1 (R32 to E363 residues) expressed in bacterial expression system at 10 uM by Kinomescan method relative to control
[21] = test system: Tyrosine-protein kinase ABL1 (Homo sapiens), P00519 [F317L]; test: Inhibition of human phosphorylated ABL1 F317L mutant (S229 to K512 residues) expressed in mammalian expression system at 10 uM by Kinomescan method relative to control
[22] = test system: Tyrosine-protein kinase ABL1 (Homo sapiens), P00519 [M351T]; test: Inhibition of human phosphorylated ABL1 M351T mutant (S229 to K512 residues) expressed in mammalian expression system at 10 uM by Kinomescan method relative to control
[23] = biological target: Dual specificity protein kinase TTK (Homo sapiens) (UniProt P33981); test: Inhibition of wild-type human partial length TTK (N505 to V798 residues) expressed in bacterial expression system at 10 uM by Kinomescan method relative to control
[24] = biological target: Insulin-like growth factor 1 receptor (Homo sapiens) (UniProt P08069); test: Inhibition of wild-type human partial length IGF1R (L972 to D1294 residues) expressed in bacterial expression system at 10 uM by Kinomescan method relative to control
Sequence of Insulin-like growth factor 1 receptor (Homo sapiens) (P08069 31-736 limits assumed): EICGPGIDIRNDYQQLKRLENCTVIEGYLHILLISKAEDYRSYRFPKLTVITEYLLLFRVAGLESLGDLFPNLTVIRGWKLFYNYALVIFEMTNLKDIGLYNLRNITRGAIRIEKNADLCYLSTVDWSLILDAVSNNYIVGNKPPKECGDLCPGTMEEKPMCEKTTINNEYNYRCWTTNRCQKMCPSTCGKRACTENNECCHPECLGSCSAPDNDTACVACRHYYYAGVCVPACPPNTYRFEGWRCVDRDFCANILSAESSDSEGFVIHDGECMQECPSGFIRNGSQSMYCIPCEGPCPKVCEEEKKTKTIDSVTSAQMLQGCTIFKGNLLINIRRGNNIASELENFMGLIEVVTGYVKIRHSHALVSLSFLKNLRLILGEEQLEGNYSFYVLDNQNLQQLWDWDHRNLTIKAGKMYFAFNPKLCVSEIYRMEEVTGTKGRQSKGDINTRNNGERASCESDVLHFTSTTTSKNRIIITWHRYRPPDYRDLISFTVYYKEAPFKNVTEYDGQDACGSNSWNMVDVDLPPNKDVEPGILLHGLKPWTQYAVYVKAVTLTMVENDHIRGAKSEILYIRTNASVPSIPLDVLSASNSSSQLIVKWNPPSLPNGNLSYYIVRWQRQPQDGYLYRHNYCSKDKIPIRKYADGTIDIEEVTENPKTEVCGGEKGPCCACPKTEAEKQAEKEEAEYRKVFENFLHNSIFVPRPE
Sequence of Insulin-like growth factor 1 receptor (Homo sapiens) (P08069 741-1367 limits assumed): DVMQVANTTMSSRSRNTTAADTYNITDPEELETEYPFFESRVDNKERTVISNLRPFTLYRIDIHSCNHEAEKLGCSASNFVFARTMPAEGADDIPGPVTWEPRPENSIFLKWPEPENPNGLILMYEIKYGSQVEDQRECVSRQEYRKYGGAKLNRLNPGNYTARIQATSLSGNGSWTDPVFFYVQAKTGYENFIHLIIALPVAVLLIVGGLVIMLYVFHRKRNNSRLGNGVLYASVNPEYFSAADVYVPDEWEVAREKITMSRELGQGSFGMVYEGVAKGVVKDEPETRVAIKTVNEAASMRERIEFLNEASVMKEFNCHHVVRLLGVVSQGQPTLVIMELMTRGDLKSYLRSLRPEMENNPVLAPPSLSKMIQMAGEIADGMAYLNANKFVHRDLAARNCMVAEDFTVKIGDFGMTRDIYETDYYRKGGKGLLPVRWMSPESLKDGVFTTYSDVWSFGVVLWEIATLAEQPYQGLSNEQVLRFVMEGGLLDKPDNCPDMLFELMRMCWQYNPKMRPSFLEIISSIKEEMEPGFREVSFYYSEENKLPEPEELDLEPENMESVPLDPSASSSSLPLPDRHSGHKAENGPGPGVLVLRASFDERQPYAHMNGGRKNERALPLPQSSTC

[25] = biological target: Dual specificity protein kinase CLK1 (Homo sapiens) (UniProt P49759); test: Inhibition of wild-type human full length CLK1 (M1 to I484 residues) expressed in bacterial expression system at 10 uM by Kinomescan method relative to control
[26] = biological target: Homeodomain-interacting protein kinase 1 (Homo sapiens) (UniProt Q86Z02); test: Inhibition of wild-type human partial length HIPK1 (M146 to I555 residues) expressed in mammalian expression system at 10 uM by Kinomescan method relative to control
Sequence of Homeodomain-interacting protein kinase 1 (Homo sapiens) (Q86Z02 whole entry, looked up, the tested form may be a part): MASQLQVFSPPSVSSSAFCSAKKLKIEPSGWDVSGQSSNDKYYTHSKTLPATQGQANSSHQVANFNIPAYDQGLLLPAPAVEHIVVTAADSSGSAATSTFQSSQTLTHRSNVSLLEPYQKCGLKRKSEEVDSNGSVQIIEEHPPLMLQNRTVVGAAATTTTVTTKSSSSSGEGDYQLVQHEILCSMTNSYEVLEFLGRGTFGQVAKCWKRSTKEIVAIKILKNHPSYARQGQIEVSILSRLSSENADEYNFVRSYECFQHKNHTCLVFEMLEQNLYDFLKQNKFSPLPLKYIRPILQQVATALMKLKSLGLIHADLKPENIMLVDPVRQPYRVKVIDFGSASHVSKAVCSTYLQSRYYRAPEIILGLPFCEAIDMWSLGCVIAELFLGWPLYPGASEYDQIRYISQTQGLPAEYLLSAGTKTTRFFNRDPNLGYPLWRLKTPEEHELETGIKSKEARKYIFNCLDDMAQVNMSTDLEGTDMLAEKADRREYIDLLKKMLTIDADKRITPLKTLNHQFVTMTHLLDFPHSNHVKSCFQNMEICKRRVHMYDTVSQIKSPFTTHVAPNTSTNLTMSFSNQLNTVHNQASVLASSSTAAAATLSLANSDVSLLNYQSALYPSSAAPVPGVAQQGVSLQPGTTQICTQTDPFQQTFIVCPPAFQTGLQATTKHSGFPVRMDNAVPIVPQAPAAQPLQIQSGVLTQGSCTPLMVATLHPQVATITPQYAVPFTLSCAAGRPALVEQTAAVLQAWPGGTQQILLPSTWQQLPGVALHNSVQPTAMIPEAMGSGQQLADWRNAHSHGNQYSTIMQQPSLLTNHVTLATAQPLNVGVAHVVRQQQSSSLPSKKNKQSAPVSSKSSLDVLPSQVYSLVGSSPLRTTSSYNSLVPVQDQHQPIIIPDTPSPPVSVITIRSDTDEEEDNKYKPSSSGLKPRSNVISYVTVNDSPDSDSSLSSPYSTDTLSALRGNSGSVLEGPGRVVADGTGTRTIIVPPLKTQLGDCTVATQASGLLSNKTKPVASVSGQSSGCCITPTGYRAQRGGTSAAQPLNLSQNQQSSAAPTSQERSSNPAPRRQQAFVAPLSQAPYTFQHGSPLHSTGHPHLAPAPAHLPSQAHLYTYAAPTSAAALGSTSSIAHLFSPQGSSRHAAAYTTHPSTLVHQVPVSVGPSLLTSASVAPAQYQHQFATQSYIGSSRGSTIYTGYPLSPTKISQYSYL

[27] = test system: Tyrosine-protein kinase ABL1 (Homo sapiens), P00519 [F317I]; test: Inhibition of human phosphorylated ABL1 F317I mutant (S229 to K512 residues) expressed in mammalian expression system at 10 uM by Kinomescan method relative to control

In the case of O=C(Nc1cccc([C@@H]2CN(c3ncnc4[nH]ccc34)CCN2CCO)c1)Nc1c(F)cccc1N1CCCC1, the inhibition [1] was 100%, the inhibition [2] was 2.2% and the inhibition [3] was 95%. For the same molecule, the inhibition [4] was 84%, the inhibition [5] was 39% and the inhibition [6] was 100%. The inhibition [7] was 86%, the inhibition [8] was 64% and the inhibition [9] was 98%. It also gave an inhibition [10] of 23% and an inhibition [11] of 35%.
In the case of O=C(Nc1cccc([C@H]2CCCN(c3ncnc4[nH]ccc34)C2)c1)Nc1ccccc1N1CCCC1, the inhibition [12] was 89%, the inhibition [13] was 73% and the inhibition [14] was 100%. For the same molecule, the inhibition [15] was 68%, the inhibition [16] was 74% and the inhibition [17] was 50%. It also gave an inhibition [18] of 57%, an inhibition [19] of 100% and an inhibition [20] of 46%. The inhibition [21] was 87%, the inhibition [22] was 71% and the inhibition [23] was 78%. The inhibition [24] was 100%, the inhibition [25] was 68% and the inhibition [26] was 61%. It also gave an inhibition [27] of 94%.

Reference: ChEMBL document CHEMBL4387741, “Optimization of novel reversible Bruton's tyrosine kinase inhibitors identified using Tethering-fragment-based screens” (Bioorg Med Chem, 2019)
